Legend:
[1] = Pharmacokinetics in beagle dogs; type: in vivo
Source text: Experimental embodiment 7: Evaluation on the pharmacokinetic of compounds in beagle dogs
Male beagle dogs were selected as the tested animals in this study, and the drug concentration in plasma of beagle dogs at different time points via intravenous injection or oral perfusion gastric administration of the test compounds was quantitatively measured using LC/MS/MS method to evaluate the pharmacokinetic characteristics of the test compounds in beagle dogs.
Beagle dog (male, 6-15 kg, more than 6 months old, Beijing Marshall Biotechnology Co., Ltd.).
A clear solution of the test compound was injected intravenously into beagle dogs (overnight fasting), or administrated orally to beagle dogs by gavage (overnight fasting). For intravenous administration, 500 μL of blood was collected from peripheral vessels at 0 hour (pre-dosing) and at 0.0833, 0.25, 0.5, 1, 2, 4, 6, 8 and 24 hours after dosing, which was then placed in an anticoagulation tube supplemented with EDTA-K2 (Suzuki Healthcare Medical Co., Ltd.). For oral gastric administration, 500 μL of blood was collected from peripheral vessels at 0 hour (pre-dosing) and at 0.25, 0.5, 1, 2, 4, 6, 8 and 24 hours after dosing, which was then placed in an anticoagulation tube supplemented with EDTA-K2. The mixture in the anticoagulation tube was vortexed to mix thoroughly, and then centrifuged at 13000 rpm for 10 minutes to collect the plasma. Plasma drug concentration was measured by LC/MS/MS method, and related pharmacokinetic parameters were calculated using WinNonlin™ Version 6.3 (Pharsight, Paul View, Calif.) pharmacokinetics software in non-room model linear logarithmic trapezoids method.

[2] = target: T1, CYP2C19 (Homo sapiens, UniProt P33261); test: Human liver microsomal cytochrome P450 isozyme inhibition assay, CYP2C19; type: in vitro ADME; conditions: human liver microsomes
T1 construct: Mixed human liver microsomes (HLM) were purchased from Corning Inc; tissue Corning Inc; host or cells: pooled human liver microsomes
T1 sequence (P33261 whole entry): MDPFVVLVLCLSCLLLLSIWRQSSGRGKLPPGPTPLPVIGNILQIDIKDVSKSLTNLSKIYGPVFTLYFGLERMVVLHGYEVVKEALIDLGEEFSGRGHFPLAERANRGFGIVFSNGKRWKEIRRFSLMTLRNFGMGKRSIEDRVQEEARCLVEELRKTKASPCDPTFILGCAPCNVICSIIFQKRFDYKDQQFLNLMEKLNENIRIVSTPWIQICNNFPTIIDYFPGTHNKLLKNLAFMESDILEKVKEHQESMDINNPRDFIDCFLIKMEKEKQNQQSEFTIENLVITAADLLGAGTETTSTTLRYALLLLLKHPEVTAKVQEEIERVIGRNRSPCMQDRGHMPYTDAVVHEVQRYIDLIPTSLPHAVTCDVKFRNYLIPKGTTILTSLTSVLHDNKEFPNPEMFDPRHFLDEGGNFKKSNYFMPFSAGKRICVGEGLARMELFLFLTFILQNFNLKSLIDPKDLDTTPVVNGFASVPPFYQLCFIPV
Protocol: Experimental Embodiment 4: Human Liver Microsomal Cytochrome P450 Isozyme Inhibition Assay The purpose of the assay was to evaluate the inhibitory activity of the samples against human liver microsomal cytochrome P450 isozyme (CYP1A2, CYP2C9, CYP2C19, CYP2D6 and CYP3A4) using the 5-in-1 probe substrate of the CYP isozyme. Mixed human liver microsomes (HLM) were purchased from Corning Inc. (Steuben, N.Y., USA) and stored below −80° C. before use. The test compound working solution which has been diluted into serial concentrations was added to an incubation system containing human liver microsomes, probe substrates and circulating system cofactors, and a control containing solvent without the test compound was used as the enzyme activity control (100%). The concentration of the metabolite produced by the probe substrate in the sample was determined using a liquid chromatography-tandem mass spectrometry (LC-MS/MS) method. Nonlinear regression analysis was performed on the average percent activity versus concentration of subjects using SigmaPlot (V.11). The IC50 value was calculated by a three-parameter or four-parameter inverse-logarithmic equation.

[3] = male, dog, plasma, intravenous injection 1 mg/kg

| SMILES | The area under the plasma concentration time curve ([1]; intravenous injection 1 mg/kg) [µM·h] | bioavailability ([1]; male, beagle, dog, plasma, po, 3 mg/kg, oral administration 3 mg/kg, read-out: Bioavailability F) [%] | half-life [1, 3] [h] | Peak concentration ([1]; oral administration 3 mg/kg) [µM] | Peak time ([1]; oral administration 3 mg/kg) [h] | The area under the plasma concentration time curve ([1]; oral administration 3 mg/kg) [µM·h] | Bioavailability F ([1]; oral administration 3 mg/kg, 3 mg/kg) [%] | Plasma clearance rate ([1]; intravenous injection 1 mg/kg, 1 mg/kg) [mL/min/kg] | clearance ([1]; male, beagle, dog, plasma, iv, 1 mg/kg, intravenous injection 1 mg/kg, read-out: Plasma clearance rate) [mL/min/kg] | IC50 [2] [µM] |
| --- | --- | --- | --- | --- | --- | --- | --- | --- | --- | --- |
| NS(=O)(=O)Nc1ncnc(OCCOc2ncc(Br)cn2)c1-c1ccc2c(c1)OCO2 [WX001] | 46.94 | > 50 | 2.31 | 16.20 | 0.38 | 73.77 | 52.4 |  |  |  |
| COCCNS(=O)(=O)Nc1ncnc(OCCOc2ncc(Br)cn2)c1-c1ccc2c(c1)OCO2 [WX013] | 7.56 |  | 0.86 | 12.75 | 0.38 | 33.40 |  | 4.79 | < 5 | > 50 |

Source: patent publication US11319305B2, “Pyrimidine sulfamide derivative and preparation method and medical application thereof” (SHIJIAZHUANG SAGACITY NEW DRUG DEVELOPMENT CO., LTD., priority 2017, dated 2022)
